Measurements as given in patent US10696692B2, “Amido-benzyl sulfone and sulfoxide derivates” (Forma TM, LLC, priority 2012, dated 2020).
Like-named read-outs stand apart in the source and are kept apart here.

Columns and labels:
[1] = system: A2780 cells; assay: Assay 2: In-Vitro Cell Proliferation Assay (A2780 cells, SRB readout, 72 hours); format: cell-based; details: A2780 cells, 72 hours, SRB, read-out: Cell Proliferation (IC50);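 further: viable cells counted via sulforhodamine B staining, absorbance at 570 nm, after 72 h exposure at 37 °C, DMSO 0.1% as control, media-only background subtracted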
[2] = molecular target: NAMPT (Homo sapiens (Human), UniProt P43490); assay: Assay 1: Biochemical Inhibition Assay (NAMPT enzymatic reaction, NMN quantified by mass spectrometry); details: read-out: Biochemical (IC50);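 further: recombinant His-tagged human NAMPT preincubated with compound 15 min, then reacted 30 min at rt with 1 µM NAM, 100 µM PRPP, 2.5 mM ATP, NMN product read by RapidFire MS, normalized to L-Cystathionine internal standard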
NAMPT, sequence (P43490 whole entry): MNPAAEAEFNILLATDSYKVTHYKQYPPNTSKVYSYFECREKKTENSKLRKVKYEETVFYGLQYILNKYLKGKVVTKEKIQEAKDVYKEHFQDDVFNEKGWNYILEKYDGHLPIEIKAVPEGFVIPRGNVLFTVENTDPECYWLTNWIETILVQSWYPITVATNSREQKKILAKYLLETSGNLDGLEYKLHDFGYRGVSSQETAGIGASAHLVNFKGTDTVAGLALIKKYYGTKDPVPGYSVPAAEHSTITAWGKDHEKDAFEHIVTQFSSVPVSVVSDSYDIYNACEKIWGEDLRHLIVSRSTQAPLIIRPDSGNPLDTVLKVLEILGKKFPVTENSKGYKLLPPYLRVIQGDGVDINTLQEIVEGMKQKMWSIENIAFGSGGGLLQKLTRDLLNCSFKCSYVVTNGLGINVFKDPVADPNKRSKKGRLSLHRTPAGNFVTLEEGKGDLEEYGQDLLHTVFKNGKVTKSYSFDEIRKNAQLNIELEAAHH

Row | IC50 [1] [nM] | IC50 [2] [nM] | IC50 ([1]; Homo sapiens, A2780, 72 h) [nM] | Compound
1 | 60.1 | 107 |  | O=C(NCc1ccc(S(=O)(=O)N2CCCC3(CCCCN3)C2)cc1)c1ccc2nccn2c1 (stereo not shown) [Example 326, N-[[4-(1,8-diazaspiro[5.5]undecan-8-ylsulfonyl)phenyl]methyl] imidazo[1,2-a]pyridine-6-carboxamide]
2 |  | 1300 | 2000 | O=C(NCc1ccc(S(=O)(=O)N2CCOC3CNCC32)cc1)c1ccc2nccn2c1 (stereo not shown) [Example 327, N-[[4-(3,4a,5,6,7,7a-hexahydro-2H-pyrrolo[3,4-b][1,4]oxazin-4-ylsulfonyl)phenyl]methyl] imidazo[1,2-a]pyridine-6-carboxamide]
3 |  | 1680 | 2000 | NCC12CC(CN1S(=O)(=O)c1ccc(CNC(=O)c3ccc4nccn4c3)cc1)C2 [Example 328, N-[[4-[[4-(aminomethyl)-3-azabicyclo[2.1.1]hexan-3-yl]sulfonyl]phenyl]methyl) imidazo[1,2-a]pyridine-6-carboxamide]
4 |  | 79.3 | 93.3 | O=C(NCc1ccc(S(=O)(=O)N2CC3CNCC3C2)cc1)c1ccc2nccn2c1 (stereo not shown) [Example 329, N-[[4-(2,3,3a,4,6,6a-hexahydro-1H-pyrrolo[3,4-c]pyrrol-5-yIsulfonyl)phenyl]methyl] imidazo[1,2-a]pyridine-6-carboxamide]
5 |  | 22.2 | 42.8 | O=C(NCc1ccc(S(=O)(=O)N2CC(C3CCCNC3)c3ccccc32)cc1)c1ccc2nccn2c1 (stereo not shown) [Example 330, N-[[4-[3-(3-piperidyl)indolin-1-yl]sulfonylphenyl]methyl] imidazo[1,2-a]pyridine-6-carboxamide]
6 |  | 355 | 774 | O=C(NCc1ccc(S(=O)(=O)N2CCCC23CCNCC3)cc1)c1ccc2nccn2c1 [Example 331, N-[[4-(1,8-diazaspiro[4.5]decan-1-ylsulfonyl)phenyl]methyl] imidazo[1,2-a]pyridine-6-carboxamide]
7 |  | 174 | 171 | O=C(NCc1ccc(S(=O)(=O)N2CC3CCNC3C2)cc1)c1ccc2nccn2c1 (stereo not shown) [Example 332, N-[[4-(2,3,3a,4,6,6a-hexahydro-1H-pyrrolo[3,4-b]pyrrol-5-ylsulfonyl)phenyl]methyl] imidazo[1,2-a]pyridine-6-carboxamide]
8 |  | 320 | 286 | O=C(NCc1ccc(S(=O)(=O)N2CC3CNCC(C2)O3)cc1)c1ccc2nccn2c1 [Example 333, N-[[4-(9-oxa-3,7-diazabicyclo[3.3.1]nonan-3-ylsulfonyl)phenyl]methyl] imidazo[1,2-a]pyridine-6-carboxamide]
9 |  | 26.7 | 26 | O=C(NCc1ccc(S(=O)(=O)N2CCCC3(CCCN3)CC2)cc1)c1ccc2nccn2c1 (stereo not shown) [Example 334, N-[[4-(1,9-diazaspiro[4.6]undecan-9-ylsulfonyl)phenyl]methyl] imidazo[1,2-a]pyridine-6-carboxamide]
10 | 2000 | 965 |  | O=C(NCc1ccc(S(=O)(=O)N2CCOC3CNCC32)cc1)c1ccc2nccn2c1 (stereo not shown) [Example 335, N-[[4-(3,4a,5,6,7,7a-hexahydro-2H-pyrrolo[3,4-b][1,4]oxazin-4-ylsulfonyl)phenyl)methyl] imidazo[1,2-a]pyridine-6-carboxamide]
11 | 399 | 379 |  | O=C(NCc1ccc(S(=O)(=O)N2CCCC3(CCCCN3)C2)cc1)c1ccc2nccn2c1 (stereo not shown) [Example 336, N-[[4-(1,8-diazaspiro[5.5]undecan-8-ylsulfonyl)phenyl]methyl] imidazo[1,2-a]pyridine-6-carboxamide]
12 |  | 88.5 | 26.6 | CC(C)N1CCC(S(=O)(=O)c2ccc(CNC(=O)c3cc4cnccc4[nH]3)cc2)CC1 [Example 340, N-[[4-[(1-isopropyl-4-piperidyl)sulfonyl]phenyl]methyl]-1H-pyrrolo[3,2-c]pyridine-2-carboxamide]
13 |  | 20.3 | 23 | CCCN1CCC(S(=O)(=O)c2ccc(CNC(=O)c3cc4ccncc4o3)cc2)CC1 [Example 342, N-[[4-[(1-propyl-4-piperidyl)sulfonyl]phenyl]methyl]furo[2,3-c]pyridine-2-carboxamide]
14 |  | 302 | 451 | O=C(NCc1ccc(S(=O)(=O)C2CCN(C(=O)c3ccccc3)CC2)cc1)c1cnc2[nH]ncc2c1 [Example 344, N-[[4-[(1-benzoyl-4-piperidyl)sulfonyl]phenyl]methyl]-1H-pyrazolo[3,4-b]pyridine-5-carboxamide]
15 |  | 118 | 307 | O=C(NCc1ccc(S(=O)(=O)C2CCCN(S(=O)(=O)c3ccccc3)C2)cc1)c1cnc2[nH]ncc2c1 (stereo not shown) [Example 345, N-[[4-[[1-(benzenesulfonyl)-3-piperidyl]sulfonyl]phenyl]methyl]-1H-pyrazolo[3,4-b]pyridine-5-carboxamide]
16 |  | 102 | 198 | O=C(NCc1ccc(S(=O)(=O)C2CCN(S(=O)(=O)c3ccccc3)C2)cc1)c1cnc2[nH]ncc2c1 (stereo not shown) [Example 346, N-[[4-[1-(benzenesulfonyl)pyrrolidin-3-yl]sulfonylphenyl]methyl]-1H-pyrazolo[3,4-b]pyridine-5-carboxamide]
17 |  | 381 | 640 | CC(=O)N1CCCC(S(=O)(=O)c2ccc(CNC(=O)c3cnc4[nH]ncc4c3)cc2)C1 (stereo not shown) [Example 347, N-[[4-[(1-acetyl-3-piperidyl)sulfonyl]phenyl]methyl]-1H-pyrazolo[3,4-b]pyridine-5-carboxamide]
18 |  | 2000 | 2000 | CC(=O)N1CCC(S(=O)(=O)c2ccc(CNC(=O)c3cnc4[nH]ncc4c3)cc2)C1 (stereo not shown) [Example 348, N-[[4-(1-acetylpyrrolidin-3-yl)sulfonylphenyl]methyl]-1H-pyrazolo[3,4-b]pyridine-5-carboxamide]
19 |  | 73.5 | 52.2 | CS(=O)(=O)N1CCC(S(=O)(=O)c2ccc(CNC(=O)c3cnc4[nH]ncc4c3)cc2)CC1 [Example 349, N-[[4-[(1-methylsulfonyl-4-piperidyl)sulfonyl]phenyl]methyl]-1H-pyrazolo[3,4-b]pyridine-5-carboxamide]
20 |  | 300 | 258 | O=C(NCc1ccc(S(=O)(=O)C2CCCN(C(=O)c3ccccc3)C2)cc1)c1cnc2[nH]ncc2c1 (stereo not shown) [Example 350, N-[[4-[(1-benzoyl-3-piperidyl)sulfonyl]phenyl]methyl]-1H-pyrazolo[3,4-b]pyridine-5-carboxamide]
21 |  | 71.1 | 107 | O=C(NCc1ccc(S(=O)(=O)C2CCN(C(=O)c3ccccc3)C2)cc1)c1cnc2[nH]ncc2c1 (stereo not shown) [Example 351, N-[[4-(1-benzoylpyrrolidin-3-yl)sulfonylphenyl]methyl]-1H-pyrazolo[3,4-b]pyridine-5-carboxamide]
22 |  | 18 | 20.3 | O=C(NCc1ccc(S(=O)(=O)C2CCN(S(=O)(=O)c3ccccc3)CC2)cc1)c1cnc2[nH]ncc2c1 [Example 352, N-[[4-[[1-(benzenesulfonyl)-4-piperidyl]sulfonyl]phenyl]methyl]-1H-pyrazolo[3,4-b]pyridine-5-carboxamide]
23 |  | 3970 | 2000 | CS(=O)(=O)N1CCCC(S(=O)(=O)c2ccc(CNC(=O)c3cnc4[nH]ncc4c3)cc2)C1 (stereo not shown) [Example 353, N-[[4-[(1-methylsulfonyl-3-piperidyl)sulfonyl)phenyl]methyl]-1H-pyrazolo[3,4-b]pyridine-5-carboxamide]
